Laboratory results taken from the NIST ThermoML archive (doi:10.1016/j.jct.2012.06.030).
Numbers after ± are expanded uncertainties.

Test: molar heat capacity at constant pressure; xn = mol fraction of the nth substance listed
Settings: 101 kPa, Liquid, Small sample (50 mg) DSC

CCCCCC[n+]1ccc2ccccc2c1.N#C[S-] [2-hexylisoquinolinium thiocyanate] + O
molar heat capacity at constant pressure [J/K/mol]
Settings	x1 = 0.2887	x1 = 0.4013	x1 = 0.5043	x1 = 0.6059	x1 = 0.6997	x1 = 0.7864	x1 = 0.8824	x1 = 1
288.15 K	189 ± 8	220 ± 9	265 ± 11	298 ± 13	333 ± 14	347 ± 15	390 ± 17	433 ± 18
293.15 K	191 ± 8	222 ± 9	267 ± 11	300 ± 13	335 ± 14	350 ± 15	392 ± 17	436 ± 19
298.15 K	192 ± 8	224 ± 10	269 ± 11	302 ± 13	337 ± 14	352 ± 15	395 ± 17	439 ± 19
303.15 K	193 ± 8	225 ± 10	271 ± 12	304 ± 13	340 ± 14	354 ± 15	397 ± 17	442 ± 19
308.15 K	195 ± 8	226 ± 10	272 ± 12	306 ± 13	341 ± 14	357 ± 15	400 ± 17	445 ± 19
313.15 K	196 ± 8	228 ± 10	274 ± 12	308 ± 13	343 ± 15	359 ± 15	402 ± 17	447 ± 19
318.15 K	197 ± 8	229 ± 10	276 ± 12	309 ± 13	346 ± 15	361 ± 15	404 ± 17	450 ± 19
323.15 K	198 ± 8	230 ± 10	277 ± 12	311 ± 13	348 ± 15	363 ± 15	406 ± 17	453 ± 19
328.15 K	198 ± 8	232 ± 10	278 ± 12	312 ± 13	350 ± 15	365 ± 15	409 ± 17	456 ± 19
333.15 K	199 ± 8	233 ± 10	280 ± 12	314 ± 13	352 ± 15	367 ± 16	411 ± 17	458 ± 19
338.15 K	200 ± 9	234 ± 10	281 ± 12	316 ± 13	353 ± 15	369 ± 16	413 ± 18	461 ± 20
343.15 K	201 ± 9	235 ± 10	283 ± 12	318 ± 14	355 ± 15	371 ± 16	415 ± 18	463 ± 20
